Test system: heparinized whole blood
Test: Drug screening: inhibitor preincubation of whole blood, then PBS or rIL-2 stimulation, mRNA quantification
Type: cell-based, human
Description: Beta-actin expression served as a control for the expression assay. Offensive immune markers characterized included tumor necrosis factor superfamily (TNFSF) 1 (lymphotoxin), 2 (TNFα), 5 (CD40L), 6 (FasL), 8 (CD30L), 9 (CD137L), 14 (LIGHT), and 15 (TL1A). Chemokines characterized included CCL2, CCL3, CCL4, CCL8, CCL11, CCL20, CXCL1, CXCL2, CXCL3, CXCL10. Interleukins characterized include IL6, IL8, IL10, IL17, and IL23. Immune effectors characterized include GM-CSF, INFγ, CD16, Granzyme B, CD122, and TGFB-1. Markers of defensive immune function characterized include FoxP3, CTLA4, CD25, and GARP-1. Other offensive or defensive immune markers, as well as other chemokines, interleukins or effectors (among other immune-associated markers) can be tested in certain embodiments.
Shaded boxes represent a fold increase of greater than 2 as well as a statistical p value of <0.05. […] The various inhibitor compounds used to pre-treat the whole blood samples are listing on the x-axis. […] Thus, this compound has a potential to block or reduce the offensive immune response and may function as a pro-immunosuppressant compound. […] Thus, from this set of experiments, it is unclear if this particular Jak inhibitor is well-suited for promoting offensive or defensive immune responses. Further dose-response studies and/or studies with additional immune markers are necessary to elucidate the efficacy of this compound.
Embodiments of the methods described herein are also well suited to the characterization of various derivative or modified compounds, in that a single assay can generate side by side data comparing of a panel of putative derivative compounds. Moreover, based on the distinct features of the data described above, embodiments of the methods described herein are useful to detecting defensive-specific (i.e. pro-offensive) inhibitor compounds for use in clinical situations. Thus, this assay platform is useful for the analysis/screening of common and selective inhibitors for offensive and defensive immune functions.

Compound	induction of IFNγ in response to PBS or rIL-2 in presence of inhibitor (additional experiments, FIG. 4A-4B)	induction of TNFSF-1 in response to PBS or rIL-2 in presence of inhibitor (additional experiments, FIG. 4C-4D)	induction of CD25 in response to PBS or rIL-2 in presence of inhibitor (additional experiments, FIG. 4G-4H)	induction of FoxP3 in response to PBS or rIL-2 in presence of inhibitor (additional experiments, FIG. 4I-4J)	induction of TNFSF1 mRNA in response to rIL-2 in presence of inhibitor (inhibitor 10 mM, 1 hour preincubation, then rIL-2 100 ng/ml 4 hours, FIG. 3A)	induction of CD25 mRNA in response to rIL-2 in presence of inhibitor (inhibitor 10 mM, 1 hour preincubation, then rIL-2 100 ng/ml 4 hours, FIG. 3I)	induction of FoxP3 mRNA in response to rIL-2 in presence of inhibitor (inhibitor 10 mM, 1 hour preincubation, then rIL-2 100 ng/ml 4 hours, FIG. 3J)
O=C1Nc2ccccc2/C1=C1/Nc2ccccc2/C1=N\OCC(O)CO (stereo not shown) [E084]	specific inhibition	specific inhibition	induced	induced	–	–	–
CC(C)(C)c1nc2c3cc[nH]c(=O)c3c3cc(F)ccc3c2[nH]1 [Jak inhibitor]	–	–	–	–	no induction	blocks induction	blocks induction

Source: US20120258076A1, “METHOD FOR CHARACTERIZING HOST IMMUNE FUNTION BY EX VIVO INDUCTION OF OFFENSIVE AND DEFENSIVE IMMUNE MARKERS” (HITACHI CHEMICAL RESEARCH CENTER, INC., priority 2009, published 2012)
